The values below come from ChEMBL document CHEMBL1949653, “Novel heterocyclic DPP-4 inhibitors for the treatment of type 2 diabetes” (Bioorg Med Chem Lett, 2012).

Some results are limits rather than exact numbers.

The target in series [1] is T1, Muscarinic acetylcholine receptor M1 (Homo sapiens, UniProt P11229).
T1 sequence (P11229 whole entry): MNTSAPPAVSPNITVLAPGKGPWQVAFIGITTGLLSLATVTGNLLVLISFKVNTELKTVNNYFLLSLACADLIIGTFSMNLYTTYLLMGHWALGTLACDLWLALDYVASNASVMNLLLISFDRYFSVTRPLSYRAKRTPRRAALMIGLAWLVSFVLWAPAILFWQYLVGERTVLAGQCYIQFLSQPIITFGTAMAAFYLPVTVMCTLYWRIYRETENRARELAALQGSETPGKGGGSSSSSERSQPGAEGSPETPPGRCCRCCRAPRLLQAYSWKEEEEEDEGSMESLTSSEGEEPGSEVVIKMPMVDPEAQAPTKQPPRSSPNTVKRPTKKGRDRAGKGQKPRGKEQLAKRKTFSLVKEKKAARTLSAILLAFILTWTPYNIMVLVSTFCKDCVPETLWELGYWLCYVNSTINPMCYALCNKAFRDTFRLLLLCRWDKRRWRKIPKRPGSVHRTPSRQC
As to the kind of experiment: Inhibition of M1 receptor.

Series [2] concerns the target Voltage-gated inwardly rectifying potassium channel KCNH2 (Homo sapiens, UniProt Q12809). As to the kind of experiment: Inhibition of human ERG by dofetilide binding assay.
The target of another series is Cytochrome P450 3A4 (Homo sapiens, UniProt P08684). Briefly: Inhibition of CYP3A4. The format is ADME.
Sequence of Cytochrome P450 3A4 (P08684 whole entry): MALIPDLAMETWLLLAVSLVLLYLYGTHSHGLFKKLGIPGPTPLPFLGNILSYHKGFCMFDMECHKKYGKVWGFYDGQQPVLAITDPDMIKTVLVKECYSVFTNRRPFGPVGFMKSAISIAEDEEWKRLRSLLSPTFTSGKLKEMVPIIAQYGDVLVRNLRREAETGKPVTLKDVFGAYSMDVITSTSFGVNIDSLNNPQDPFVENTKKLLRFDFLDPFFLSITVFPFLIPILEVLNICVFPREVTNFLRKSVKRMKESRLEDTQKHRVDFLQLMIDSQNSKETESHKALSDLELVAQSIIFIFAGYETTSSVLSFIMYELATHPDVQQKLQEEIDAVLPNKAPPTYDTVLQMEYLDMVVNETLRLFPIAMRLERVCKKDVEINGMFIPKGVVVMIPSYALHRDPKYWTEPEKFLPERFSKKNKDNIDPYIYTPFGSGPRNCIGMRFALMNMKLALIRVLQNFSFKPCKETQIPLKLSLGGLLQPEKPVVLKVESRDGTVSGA
The species named for series [3] is Rattus norvegicus. As to the kind of experiment: animal or person. The following applies: po, 5 h, read-out: INH.
Series [4] can be described thus: Oral bioavailability in rat. The format is ADME, organism-based. Conditions: in vivo.
Series [5] is described as follows: Cmax in rat. The following applies: in vivo. The class given is ADME, organism-based.
The nature of series [6]: Permeability from apical side to basal side of human Caco2 cells. The following applies: Caco-2.
Series [7] in a line: Clearance in rat at 1 mg/kg, iv. The format is ADME, organism-based. Also noted: dose 1 mg/kg, route intravenous. Conditions: in vivo.
Series [8] in a line: AUC in rat. The class given is ADME, organism-based. Conditions: plasma.
Series [9] concerns Rattus norvegicus. Briefly: Ex-vivo inhibition of DPP4 in Wistar rat at 3 mg/kg, po up to 8 hrs post-administration. The format is functional.
The nature of series [10]: Intrinsic clearance in rat liver microsome. The class given is ADME. Conditions: liver microsomes, read-out: CLH.
Series [11] is described as follows: Inhibition of Cytochrome P450. The class given is ADME.

Sequence of Voltage-gated inwardly rectifying potassium channel KCNH2 (Q12809 whole entry): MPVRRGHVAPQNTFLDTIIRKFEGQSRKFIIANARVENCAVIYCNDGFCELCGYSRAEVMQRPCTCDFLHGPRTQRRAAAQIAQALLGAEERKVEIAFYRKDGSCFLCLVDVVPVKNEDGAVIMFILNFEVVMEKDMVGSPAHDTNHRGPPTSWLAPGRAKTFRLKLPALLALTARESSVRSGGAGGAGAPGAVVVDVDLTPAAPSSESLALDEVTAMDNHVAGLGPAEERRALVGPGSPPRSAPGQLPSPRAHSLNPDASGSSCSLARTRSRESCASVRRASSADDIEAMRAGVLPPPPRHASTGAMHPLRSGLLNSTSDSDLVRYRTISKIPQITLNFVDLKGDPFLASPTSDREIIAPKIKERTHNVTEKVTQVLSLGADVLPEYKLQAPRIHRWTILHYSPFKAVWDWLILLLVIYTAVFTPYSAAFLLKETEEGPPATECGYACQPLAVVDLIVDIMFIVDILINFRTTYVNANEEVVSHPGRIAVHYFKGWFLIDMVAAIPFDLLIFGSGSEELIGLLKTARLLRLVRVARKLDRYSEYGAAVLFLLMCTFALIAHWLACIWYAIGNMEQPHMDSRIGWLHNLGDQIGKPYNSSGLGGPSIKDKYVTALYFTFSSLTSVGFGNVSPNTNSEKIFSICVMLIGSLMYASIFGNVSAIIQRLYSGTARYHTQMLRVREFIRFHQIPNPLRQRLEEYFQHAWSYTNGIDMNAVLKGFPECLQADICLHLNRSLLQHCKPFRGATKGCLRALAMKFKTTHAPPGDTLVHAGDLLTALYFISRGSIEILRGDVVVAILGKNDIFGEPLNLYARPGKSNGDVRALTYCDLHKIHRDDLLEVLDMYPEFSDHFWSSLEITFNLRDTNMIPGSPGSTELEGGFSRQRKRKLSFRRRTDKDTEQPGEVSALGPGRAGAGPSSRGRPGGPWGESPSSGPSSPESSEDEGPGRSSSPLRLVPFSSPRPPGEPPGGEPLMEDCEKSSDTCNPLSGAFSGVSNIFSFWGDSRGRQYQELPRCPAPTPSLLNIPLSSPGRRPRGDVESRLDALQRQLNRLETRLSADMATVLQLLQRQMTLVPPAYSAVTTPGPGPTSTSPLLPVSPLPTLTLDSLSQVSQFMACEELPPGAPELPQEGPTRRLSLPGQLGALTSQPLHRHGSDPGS

As to `CC#CCn1c(N2CCC[C@H](N)C2)c(C#N)c2ncn(Cc3nccc4ccccc34)c(=O)c21`, in series [1], the IC50 was above 10 µM. Turning to `COc1cccc(C(=O)Cn2c(=O)c3c(c(C#N)c(N4CCCNCC4)n3CC=C(C)C)n(C)c2=O)c1`, the IC50 is 1.1 µM in series [2], above 10 µM in series [1] and at most 3 µM on Cytochrome P450 3A4.

In the case of `CC(C)=CCn1c(N2CCC[C@H](N)C2)c(C#N)c2c1c(=O)n(Cc1nc(C)c3ccccc3n1)c(=O)n2C`, the IC50 in [2] was 6.7 µM; in series [1] it was above 10 µM; against Cytochrome P450 3A4, at most 3 µM.

In the case of `CC(C)=CCn1c(N2CCC[C@H](N)C2)c(C#N)c2ncn(Cc3ccnc4ccccc34)c(=O)c21`, in [1], the IC50 is above 10 µM.

Consider `CC(C)=CCn1c(N2CCCNCC2)c(C#N)c2ncn(Cc3nccc4ccccc34)c(=O)c21`, for which the IC50 in series [1] was above 10 µM. Still for that read-out and setting: under `Cn1cnc2c(C#N)c(N3CCNCC3)n(Cc3ccccc3)c2c1=O` stands above 10 µM; under `N#Cc1c(N2CCC[C@H](N)C2)n(Cc2ccccc2)c2c(=O)n(Cc3ccnc4ccccc34)cnc12`, above 10 µM.

Consider `CC(C)=CCn1c(N2CCC[C@H](N)C2)c(C#N)c2ncn(Cc3nccc4ccccc34)c(=O)c21`, for which, in the series listed under Rattus norvegicus [3], the inhibition in vivo at 3 mg/kg worked out at 60%. The IC50 in [1] is above 10 µM. For `CC#CCn1c(N2CCC[C@@H](N)C2)nc2c1c(=O)n(Cc1nc(C)c3ccccc3n1)c(=O)n2C` [LINAGLIPTIN], the bioavailability in series [4] came to 9%. Also, in [5], the Cmax worked out at 21 nM. Moreover, the Papp A→B in series [6] stood at 0.8 ×10⁻⁶ cm/s. This compound registered a clearance in [7] of 34 mL/min/kg. In addition, the AUC in [8] is 0.185 µM·h.

Regarding `Cn1c(=O)n(Cc2nccc3ccccc23)c(=O)c2c1c(C#N)c(N1CCC[C@H](N)C1)n2Cc1ccccc1`, the figures for the half-inhibitory concentration (IC50) (in series [2]; in series [1]; against Cytochrome P450 3A4) were 2.8 µM, above 10 µM and at most 3 µM, respectively. Regarding `CC#CCn1c(N2CCC[C@H](N)C2)c(C#N)c2c1c(=O)n(Cc1nc(C)c3ccccc3n1)c(=O)n2C`, the IC50 in series [2] was above 30 µM; in series [1], above 10 µM.

In the case of `CC#CCn1c(N2CCC[C@@H](N)C2)c(C#N)c2c1c(=O)n(Cc1nc(C)c3ccccc3n1)c(=O)n2C`, the figures for the IC50 in series [2] and in series [1] were 21.7 µM and above 10 µM, respectively. As to `CC(C)=CCn1c(N2CCCNCC2)c(C#N)c2c1c(=O)n(Cc1ncc3ccccc3c1C#N)c(=O)n2C`, the IC50 is 1.8 µM in series [2], above 10 µM in [1] and at most 3 µM against Cytochrome P450 3A4. As to `CC#CCn1c(N2CCCNCC2)c(C#N)c2c1c(=O)n(Cc1ncc3ccccc3c1C#N)c(=O)n2C`, the IC50 is 12 µM in series [2] and above 10 µM in series [1]. Consider `CC(C)=CCn1c(N2CCC[C@H](N)C2)c(C#N)c2c1c(=O)n(Cc1ncccc1C#N)c(=O)n2C`, for which the IC50 is 16.9 µM in [2], above 10 µM in series [1] and at most 3 µM against Cytochrome P450 3A4.

On to `CC#CCn1c(N2CCNCC2)c(C#N)c2ncn(CC(=O)c3cccc(OC)c3)c(=O)c21`, for which, in [1], the 50% inhibitory concentration (IC50) is above 10 µM. The same measure, in the same setting: with `CC(C)=CCn1c(N2CCC[C@H](N)C2)c(C#N)c2ncn(Cc3nc(C)c4ccccc4n3)c(=O)c21` the figure was above 10 µM. Same read-out and setting: with `CC#CCn1c(N2CCC[C@@H](N)C2)c(C#N)c2ncn(CC(=O)c3cccc(OC)c3)c(=O)c21` the figure was above 10 µM. `CC#CCn1c(N2CCCNCC2)c(C#N)c2ncn(Cc3nc(C)c4ccccc4n3)c(=O)c21` displayed a Papp A→B in [6] of 1.7 ×10⁻⁶ cm/s. In [1], this compound displayed an IC50 above 10 µM. For the compound `CC#CCn1c(N2CCC[C@H](N)C2)c(C#N)c2c1c(=O)n(Cc1nccc3ccccc13)c(=O)n2C`, the values for the IC50 in series [2] and in series [1] were 28.2 µM and above 10 µM, respectively. `CC(C)=CCn1c(N2CCC[C@H](N)C2)c(C#N)c2ncn(C)c(=O)c21` yielded an IC50 in series [1] above 10 µM. In series [1], `CC#CCn1c(N2CCC[C@H](N)C2)c(C#N)c2ncn(Cc3ccnc4ccccc34)c(=O)c21` displayed an IC50 above 10 µM. In series [1], `CC#CCn1c(N2CCCNCC2)c(C#N)c2c1c(=O)n(Cc1nccc3ccccc13)c(=O)n2C` registered an IC50 above 10 µM. For the same compound, in the series on Rattus norvegicus [9], the inhibition in vivo at 3 mg/kg is at least 70%. For `CC(C)=CCn1c(N2CCCNCC2)c(C#N)c2c1c(=O)n(Cc1c(C#N)cnc3ccccc13)c(=O)n2C`, the IC50 is 0.9 µM in series [2], above 10 µM in series [1] and at most 3 µM on Cytochrome P450 3A4. `COc1cccc(C(=O)Cn2cnc3c(C#N)c(N4CCNCC4)n(CC=C(C)C)c3c2=O)c1` came in with an IC50 in [1] above 10 µM.

In turn, `COc1cccc(C(=O)Cn2cnc3c(C#N)c(N4CCC[C@@H](N)C4)n(CC=C(C)C)c3c2=O)c1` returned an IC50 in [1] above 10 µM.

Turning to `COc1cccc(C(=O)Cn2cnc3c(C#N)c(N4CCNCC4)n(Cc4ccccc4)c3c2=O)c1`, in series [1], the IC50 is above 10 µM. The same measure, in the same setting: with `CC#CCn1c(N2CCC[C@H](N)C2)c(C#N)c2c1c(=O)n(CC(=O)c1cccc(OC)c1)c(=O)n2C` the figure was above 10 µM; with `Cn1c(=O)c2c(c(C#N)c(N3CCC[C@H](N)C3)n2Cc2ccccc2)n(C)c1=O`, above 10 µM; with `COc1cccc(C(=O)Cn2c(=O)c3c(c(C#N)c(N4CCC[C@H](N)C4)n3Cc3ccccc3)n(C)c2=O)c1`, above 10 µM.

Regarding `CC(C)=CCn1c(N2CCCNCC2)c(C#N)c2c1c(=O)n(Cc1nccc3ccccc13)c(=O)n2C`, the IC50 in series [1] was above 10 µM. Still for that read-out and setting: with `CC#CCn1c(N2CCCNCC2)c(C#N)c2c1c(=O)n(Cc1nc(C)c3ccccc3n1)c(=O)n2C` the figure was above 10 µM. On to `CC(C)=CCn1c(N2CCCNCC2)c(C#N)c2c1c(=O)n(Cc1nc(C)c3ccccc3n1)c(=O)n2C`, for which the IC50 in series [1] was above 10 µM; against Cytochrome P450 3A4, at most 3 µM.

In the case of `CC#CCn1c(N2CCC[C@H](N)C2)c(C#N)c2ncn(CC(=O)c3cccc(OC)c3)c(=O)c21`, the half-inhibitory concentration (IC50) in [1] is above 10 µM. On to `CC(C)=CCn1c(N2CCC[C@H](N)C2)c(C#N)c2c1c(=O)n(Cc1cnc3ccccc3n1)c(=O)n2C`, for which the results for the IC50 (in series [1]; against Cytochrome P450 3A4) were above 10 µM and at most 3 µM, respectively. `COc1cccc(C(=O)Cn2cnc3c(C#N)c(N4CCC[C@H](N)C4)n(Cc4ccccc4)c3c2=O)c1` came in with an IC50 in series [1] above 10 µM. Compound `N#Cc1c(N2CCCNCC2)n(Cc2ccccc2)c2c(=O)n(Cc3nccc4ccccc34)cnc12` registered a concentration for half-maximal inhibition (IC50) in series [1] above 10 µM. Still for that read-out and setting: with `CC(C)=CCn1c(N2CCC[C@H](N)C2)c(C#N)c2c1c(=O)n(Cc1nccc3ccccc13)c(=O)n2C` the figure was above 10 µM; with `COc1cccc(C(=O)Cn2cnc3c(C#N)c(N4CCC[C@H](N)C4)n(CC=C(C)C)c3c2=O)c1`, above 10 µM. Turning to `CC(C)=CCn1c(N2CCC[C@H](N)C2)c(C#N)c2ncn(Cc3ncc4ccccc4n3)c(=O)c21`, in series [10], the CLint scaled is 67 mL/min/kg. For the same compound, in series [1], the IC50 is above 10 µM. Compound `CC#CCn1c(N2CCCNCC2)c(C#N)c2ncn(Cc3ncc4ccccc4n3)c(=O)c21` had a Papp A→B in series [6] of 0.6 ×10⁻⁶ cm/s. Further, the IC50 in series [1] is above 10 µM. In series [1], `CC#CCn1c(N2CCCNCC2)c(C#N)c2ncn(Cc3nccc4ccccc34)c(=O)c21` returned an IC50 above 10 µM.

In the case of `Cn1cnc2c(C#N)c(N3CCC[C@H](N)C3)n(Cc3ccccc3)c2c1=O`, in series [1], the IC50 was above 10 µM. Turning to `CC(C)=CCn1c(N2CCCNCC2)c(C#N)c2c1c(=O)n(Cc1cn3ccccc3n1)c(=O)n2C`, the IC50 was above 10 µM in series [1] and at most 3 µM on Cytochrome P450 3A4. `COc1cccc(C(=O)Cn2cnc3c(C#N)c(N4CCC[C@@H](N)C4)n(Cc4ccccc4)c3c2=O)c1` yielded an IC50 in series [1] above 10 µM. In the case of `CC#CCn1c(N2CCCNCC2)c(C#N)c2c1c(=O)n(Cc1c(C#N)cnc3ccccc13)c(=O)n2C`, the IC50 was above 10 µM in series [1], above 10 µM in [11] and at least 10 µM against Cytochrome P450 3A4. Turning to `COc1cccc(C(=O)Cn2c(=O)c3c(c(C#N)c(N4CCC[C@H](N)C4)n3CC=C(C)C)n(C)c2=O)c1`, the IC50 in [2] was 1.6 µM; in [1] it was above 10 µM; on Cytochrome P450 3A4, at most 3 µM.
